Target: Aβ40 (amyloid β-protein, monomer) (Homo sapiens, UniProt P05067)
Assay: […]-1H HSQC NMR titration
Format: binding

Chain of Aβ40 (amyloid β-protein, monomer) (P05067 672-711 limits assumed): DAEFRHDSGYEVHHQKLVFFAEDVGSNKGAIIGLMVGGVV

Kd: 310 ± 130 µM
Structure (SMILES): COc1ccc(/C=C/C(=O)Nc2ccccc2C(=O)O)cc1OC [tranilast, N-[3,4-Dimethoxycinnamoyl]-anthranilic acid]

— publication PMC4082028 (Biochemistry, 2013)
